Literature values in patent EP0553294B1, “THE MANUFACTURE OF COMPOSITIONS FOR THE TREATMENT OF CELL PRO[…]” (AMGEN INC., priority 1990, dated 1992).

Tested on: Kaposi's Sarcoma
Conditions: administered alone; general statement, no test described

In the case of `Cc1cn([C@H]2C[C@H](N=[N+]=[N-])[C@@H](CO)O2)c(=O)[nH]c1=O` [AZT, zidovudine], the “effectiveness on Kaposi's Sarcoma” value is listed as “not effective”.
